The record followed here is ChEMBL document CHEMBL1139774, “3-Hydroxy-4-methoxyindolomorphinans as delta opioid selective ligands” (Bioorg Med Chem Lett, 2007).

For orientation: Ki means a measure of affinity in units of concentration, obtained from inhibition or displacement.

The species named for one assay is Rattus norvegicus. The assay is described as follows: Selectivity for rat recombinant delta opioid receptor over rat recombinant mu opioid receptor.
Assay [1] deals with Kappa-type opioid receptor (Homo sapiens, UniProt P41145). The assay is described as follows: Displacement of [3H]U-69593 from human recombinant kappa opioid receptor expressed in CHO cells. Format: cell-based. In general terms: In a radioligand displacement assay an active substance lowers the binding of a labelled ligand.
Sequence of Kappa-type opioid receptor (P41145 whole entry): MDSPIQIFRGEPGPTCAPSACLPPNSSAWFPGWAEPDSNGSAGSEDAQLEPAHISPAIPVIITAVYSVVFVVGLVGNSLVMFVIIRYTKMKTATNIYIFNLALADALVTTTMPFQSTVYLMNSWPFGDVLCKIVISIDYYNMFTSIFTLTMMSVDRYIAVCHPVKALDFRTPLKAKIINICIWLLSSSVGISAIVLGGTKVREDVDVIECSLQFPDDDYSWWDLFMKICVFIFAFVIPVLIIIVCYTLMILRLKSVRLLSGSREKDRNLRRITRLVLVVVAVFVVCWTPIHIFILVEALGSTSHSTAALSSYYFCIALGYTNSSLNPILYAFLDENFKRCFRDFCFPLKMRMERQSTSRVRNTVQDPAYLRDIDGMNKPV
The target in assay [2] is Delta-type opioid receptor (Rattus norvegicus, UniProt P33533). Nature of the assay: Displacement of [3H]p-Cl-DPDPE from rat recombinant delta opioid receptor expressed in C6 cells. The class given is cell-based.
Sequence of Delta-type opioid receptor (P33533 whole entry): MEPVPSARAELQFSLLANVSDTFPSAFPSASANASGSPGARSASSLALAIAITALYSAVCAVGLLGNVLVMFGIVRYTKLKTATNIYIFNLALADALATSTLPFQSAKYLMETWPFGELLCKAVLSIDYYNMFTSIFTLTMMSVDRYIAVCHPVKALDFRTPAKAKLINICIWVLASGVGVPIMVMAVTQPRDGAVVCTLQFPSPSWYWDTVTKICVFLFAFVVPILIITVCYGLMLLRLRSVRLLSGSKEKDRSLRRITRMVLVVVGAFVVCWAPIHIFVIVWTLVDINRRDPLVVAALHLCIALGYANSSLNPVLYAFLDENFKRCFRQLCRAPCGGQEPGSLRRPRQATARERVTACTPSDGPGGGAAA
The target in a further assay is Mu-type opioid receptor (Rattus norvegicus, UniProt P33535). The assay is described as follows: Displacement of [3H]DAMGO from rat recombinant mu opioid receptor expressed in C6 cells. The class given is cell-based.
Sequence of Mu-type opioid receptor (P33535 whole entry): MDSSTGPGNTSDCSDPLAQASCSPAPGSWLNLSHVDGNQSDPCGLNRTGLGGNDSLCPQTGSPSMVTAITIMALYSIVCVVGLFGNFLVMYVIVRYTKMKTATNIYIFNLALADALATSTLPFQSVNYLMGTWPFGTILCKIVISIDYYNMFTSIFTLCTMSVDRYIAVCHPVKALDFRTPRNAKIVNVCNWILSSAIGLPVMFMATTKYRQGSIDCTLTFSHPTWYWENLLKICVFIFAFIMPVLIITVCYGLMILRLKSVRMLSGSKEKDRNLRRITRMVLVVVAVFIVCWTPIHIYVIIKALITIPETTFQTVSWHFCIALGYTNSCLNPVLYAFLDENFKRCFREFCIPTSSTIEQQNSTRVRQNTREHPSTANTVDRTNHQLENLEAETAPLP

Regarding `COc1ccc2c(c1OC)[C@]13CCN(CC4CC4)[C@H](C2)[C@]1(O)Cc1c([nH]c2ccccc12)C3`, the Ratio Ki in the assay filed under Rattus norvegicus is 90. The Ki in assay [1] is 1440 nM; in assay [2], 19 nM; at Mu-type opioid receptor, 1720 nM.
For `COc1c(O)ccc2c1[C@]13CCN(CC4CC4)[C@H](C2)[C@]1(O)Cc1c([nH]c2ccccc12)C3`, in that order: 145, 79 nM, 0.4 nM and 58 nM.
Consider `CN1CC[C@]23c4c5ccc(O)c4O[C@H]2c2[nH]c4ccccc4c2C[C@@]3(O)[C@H]1C5` [OXYMORPHINDOLE CHLORIDE], for which the Ratio Ki in the assay filed under Rattus norvegicus was found to be 115. The Ki in assay [1] was 515 nM; in assay [2], 0.9 nM; on Mu-type opioid receptor, 105 nM.
Take `COc1c(O)ccc2c1[C@]13CCN(C)[C@H](C2)[C@]1(O)Cc1c([nH]c2ccccc12)C3`: the Ratio Ki in the assay filed under Rattus norvegicus was 105. The Ki in assay [1] was 582 nM; in assay [2] it was 4.5 nM; on Mu-type opioid receptor, 474 nM.
In the case of `COc1ccc2c(c1OC)[C@]13CCN(C)[C@H](C2)[C@]1(O)Cc1c([nH]c2ccccc12)C3`, in the assay listed under Rattus norvegicus, the Ratio Ki came to 185. Also, the Ki is > 7000 nM in assay [1], 41 nM in assay [2] and 7590 nM at Mu-type opioid receptor.
